# According to US9150546B2, “Triazine derivative and pharmaceutical composition comprising the same” (SHIONOGI & CO., LTD., priority 2009, dated 2015):
# Target: human P2X3 receptor (Homo sapiens (Human), UniProt P56373)
# Experiment: P2X3 receptor inhibition, ATP-evoked Fluo-3 fluorescence (FDSS 3000)
# Type: cell-based
# Conditions: C6BU-1 cell transfected with human P2X3 receptor gene
# human P2X3 receptor, sequence (P56373 whole entry): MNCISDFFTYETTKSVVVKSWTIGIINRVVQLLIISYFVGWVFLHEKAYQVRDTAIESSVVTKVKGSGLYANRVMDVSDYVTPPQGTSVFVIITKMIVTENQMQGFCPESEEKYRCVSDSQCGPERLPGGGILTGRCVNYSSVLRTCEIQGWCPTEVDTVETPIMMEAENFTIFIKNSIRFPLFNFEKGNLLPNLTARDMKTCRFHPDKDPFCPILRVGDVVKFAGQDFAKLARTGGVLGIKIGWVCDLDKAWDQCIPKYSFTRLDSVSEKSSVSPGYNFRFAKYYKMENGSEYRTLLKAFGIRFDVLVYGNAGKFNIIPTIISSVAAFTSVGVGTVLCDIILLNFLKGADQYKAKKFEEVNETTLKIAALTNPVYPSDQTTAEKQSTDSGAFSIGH
row,Structure (SMILES),IC50 [nM]
1,CCOc1ccc(/N=c2\[nH]c(=O)n(C[C@@H](C)C(=O)O)c(=O)n2Cc2ccc(Cl)cc2)cc1 [I-484],290
2,CC(C)Oc1ccc(Nc2nc(=O)n(CCN3C(=O)CNC3=O)c(=O)n2Cc2ccc(Cl)cc2)cc1F [I-391],133
3,CCOc1nc(=O)n(Cc2ccc(Cl)cc2)/c(=N/c2ccc(OC(C)C)c(Cl)c2)[nH]1 [II-014],254
4,CC(C)n1c(=O)nc(Nc2ccc(OC3CCOCC3)c(Cl)c2)n(Cc2ccc(Cl)cc2)c1=O [I-239],116
5,CCn1ccc2cc(/N=c3\[nH]c(=O)n(CC(C)(C)C(=O)O)c(=O)n3Cc3ccc(Cl)cc3)ccc21 [I-493],952
6,CC(C)CNC(=O)c1ccc(Nc2nc(=O)n(C(C)C)c(=O)n2Cc2ccc(Cl)cc2)cc1 [I-256],867
7,CC(C)Oc1ccc(Nc2nc(OCC(CO)CO)nc(=O)n2Cc2ccc(Cl)cc2)cc1F [II-008],943
8,CC(C)Oc1ccc(Nc2nc(=O)n(CCO)c(=O)n2Cc2ccc(F)cc2F)cc1F [I-340],336
9,Cc1ccc(Cn2c(=O)n(CC(=O)N[C@@H](C)C(=O)O)c(=O)[nH]/c2=N\c2ccc(OC(C)C)c(F)c2)cc1 [I-418],200
10,CC(C)Oc1ccc(Nc2nc(=O)n(CCOC3CCCCO3)c(=O)n2Cc2ccc(Cl)cc2)cc1F (centres unmarked) [I-545],6
11,CC(C)Oc1ccc(Nc2nc(=O)n(CCO)c(=O)[nH]2)cc1F [I-325],665
12,COC(=O)[C@@H](C)Cn1c(=O)[nH]/c(=N\c2ccc(OC(C)C)c(F)c2)n(Cc2ccc(C)cc2)c1=O [I-515],6
13,CC(C)Oc1ccc(Nc2nc(OCCO)nc(=O)n2Cc2ccc(Cl)cc2)cc1F [II-002],79
14,CC(C)n1c(=O)nc(Nc2ccc(C(=O)Nc3ccccc3)cc2)n(Cc2ccc(Cl)cc2)c1=O [I-266],861
15,CCOc1ccc(Nc2nc(=O)n(C[C@H](C)C(=O)OC)c(=O)n2Cc2ccc(Cl)cc2)cc1Cl [I-533],10
16,CC(C)Oc1ccc(Nc2nc(=O)n(CC3CC3)c(=O)n2Cc2ccc(Cl)cc2)cc1F [I-271],32
17,Cc1ccc(Cn2c(Nc3ccc4[nH]ccc4c3)nc(=O)n(C(C)C)c2=O)cc1 [I-123],815
18,CC(C)c1cccc(Nc2nc(=O)n(CCO)c(=O)n2Cc2ccc(Cl)cc2)c1 [I-378],347
19,CCC[S+]([O-])c1ccc(Nc2nc(=O)n(CCO)c(=O)n2Cc2ccc(Cl)cc2)cc1 (centres unmarked) [I-385],908
20,Cc1ccc(Cn2c(=O)n(CC(C)(C)C(=O)O)c(=O)[nH]/c2=N\c2ccc(OC(C)C)c(F)c2)cc1 [I-405],32
21,COC(=O)C(C)(C)Cn1c(=O)[nH]/c(=N\c2cccc(Cl)c2)n(Cc2ccc(Cl)cc2)c1=O [I-466],37
22,CC(C)n1c(=O)nc(Nc2cccc(OC(F)(F)F)c2)n(Cc2ccc(F)cc2)c1=O [I-181],985
23,CC(C)Oc1ccc(/N=c2\[nH]c(=O)n(C[C@@H](C)C(=O)O)c(=O)n2Cc2ccc(Cl)cc2)cc1F [I-455],30
24,COC(=O)C(C)n1c(=O)[nH]/c(=N\c2ccc(OC(C)C)c(F)c2)n(Cc2ccc(Cl)cc2)c1=O (centres unmarked) [I-474],14
25,Cc1ccc(Cn2c(=O)n(CCCC(=O)O)c(=O)[nH]/c2=N\c2ccc(OC(C)C)c(Cl)c2)cc1 [I-519],12
26,Cc1ccc(Cn2c(=O)n(CCC(=O)O)c(=O)[nH]/c2=N\c2ccc(OC(C)C)c(F)c2)cc1 [I-411],61

row,Structure (SMILES),IC50 [nM]
1,COC(=O)C(C)(C)Cn1c(=O)[nH]/c(=N\c2ccc3oc(C)nc3c2)n(Cc2ccc(Cl)cc2)c1=O [I-488],124
2,COC(=O)[C@@H](C)Cn1c(=O)[nH]/c(=N\c2ccc(OC(C)C)c(C)c2)n(CC2CCCCC2)c1=O [I-555],13
3,CCCn1ccc2cc(/N=c3\[nH]c(=O)n(CC(C)(C)C(=O)OC)c(=O)n3Cc3ccc(Cl)cc3)ccc21 [I-507],301
4,COC(=O)CNC(=O)Cn1c(=O)[nH]/c(=N\c2ccc(OC(C)C)c(F)c2)n(Cc2ccc(Cl)cc2)c1=O [I-397],19
5,Cc1ccc(/N=c2\[nH]c(=O)n(CC(C)(C)C(=O)O)c(=O)n2Cc2ccc(Cl)cc2)cc1C [I-464],564
6,CC(C)Oc1ccc(Nc2nc(=O)n(CCO)c(=O)n2Cc2ccc([N+](=O)[O-])cc2)cc1F [I-347],251
7,CC(C)Oc1ccc(Nc2nc(=O)n(C(C)C)c(=O)n2Cc2ccc(Cl)cc2)cn1 [I-394],435
8,CCOC(=O)CCn1c(=O)nc(Nc2ccc(OC(C)C)c(Cl)c2)n(Cc2ccc(Cl)cc2)c1=O [I-354],8
9,CC(C)Oc1ccc(Nc2nc(=O)n(CCN(C)C)c(=O)n2Cc2ccc(Cl)cc2)cc1F [I-272],180
10,COC(=O)C(C)(C)Cn1c(=O)[nH]/c(=N\c2cccc(OC(F)F)c2)n(Cc2ccc(Cl)cc2)c1=O [I-443],207
11,CNC(=O)Cn1c(=O)[nH]/c(=N\c2ccc(OC(C)C)c(Cl)c2)n(Cc2ccc(Cl)cc2)c1=O [I-436],8
12,COc1ccc(Nc2nc(=O)n(CCO)c(=O)n2Cc2ccc(Cl)cc2)cc1F [I-305],946
13,Cc1ccc(Cn2c(=O)n(CC(=O)N[C@H](C)C(=O)O)c(=O)[nH]/c2=N\c2ccc(OC(C)C)c(F)c2)cc1 [I-417],35
14,CCOc1ccc(/N=c2\[nH]c(=O)n(C[C@H](C)C(=O)O)c(=O)n2Cc2ccc(Cl)cc2)cc1 [I-535],52
15,O=c1nc(Nc2cccc(OC(F)(F)F)c2)n(Cc2ccc(Cl)cc2)c(=O)n1CCO [I-309],357
16,Cc1ccc(Cn2c(=O)n(CC(=O)NC(CO)CO)c(=O)[nH]/c2=N\c2ccc(OC(C)C)c(F)c2)cc1 [I-414],7
17,CC(C)Cn1ccc2cc(/N=c3\[nH]c(=O)n(CC(C)(C)C(=O)O)c(=O)n3Cc3ccc(Cl)cc3)ccc21 [I-508],511
18,CCOc1ccc(/N=c2\[nH]c(=O)n(CC(C)(C)C(=O)OC)c(=O)n2Cc2ccc(Cl)cc2)cc1C [I-462],4
19,Cc1ccc(Cn2c(=O)n(CC(=O)NC3(C(=O)O)CC3)c(=O)[nH]/c2=N\c2ccc(OC(C)C)c(F)c2)cc1 [I-419],71
20,CCOc1ccc(/N=c2\[nH]c(=O)n(CC(C)(C)C(=O)O)c(=O)n2Cc2ccc(Cl)cc2)cc1Cl [I-446],20
21,COC(=O)Cn1c(=O)[nH]/c(=N\c2ccc(OC(C)C)c(F)c2)n(Cc2ccc(C)cc2)c1=O [I-410],44
22,CC(C)Oc1ccc(/N=c2\[nH]c(=O)n(Cc3ccccc3C(=O)O)c(=O)n2Cc2ccc(Cl)cc2)cc1F [I-459],39
23,CCOC(=O)CCn1c(=O)nc(Nc2ccc(OC(C)C)c(F)c2)n(Cc2ccc(Cl)cc2)c1=O [I-356],12
24,Cc1cc(/N=c2\[nH]c(=O)n(C[C@@H](C)C(=O)O)c(=O)n2Cc2ccc(Cl)cc2)ccc1OC(C)C [I-486],42
25,CCOC(=O)CCCn1c(=O)[nH]/c(=N\c2ccc(OC(C)C)c(Cl)c2)n(Cc2ccc(Cl)cc2)c1=O [I-498],9
26,CC(C)Oc1ccc(Nc2nc(=O)n(CCNC(=O)N(C)C)c(=O)n2Cc2ccc(Cl)cc2)cc1F [I-388],36

row,Structure (SMILES),IC50 [nM]
1,CC(C)Oc1ccc(Nc2nc(=O)n(CC(CO)CO)c(=O)n2Cc2ccc(Cl)cc2)cc1F [I-276],12
2,COC(=O)[C@H](C)Cn1c(=O)[nH]/c(=N\c2ccc(OC(C)C)c(Cl)c2)n(Cc2ccc(Cl)cc2)c1=O [I-457],3
3,CCCn1ccc2cc(/N=c3\[nH]c(=O)n(CC(C)(C)C(=O)O)c(=O)n3Cc3ccc(Cl)cc3)ccc21 [I-509],652
4,CC(C)Oc1ccc(Nc2nc(=O)n(CC(C)(CO)CO)c(=O)n2Cc2ccc(Cl)cc2)cc1F [I-274],9
5,C=CCn1c(=O)nc(Nc2ccc(OC(C)C)c(F)c2)n(Cc2ccc(Cl)cc2)c1=O [I-346],16
6,CCCOc1ccc(Nc2nc(=O)n(CCO)c(=O)n2Cc2ccc(Cl)cc2)cc1F [I-321],33
7,COC(=O)C(C)(C)Cn1c(=O)[nH]/c(=N\c2ccc(O)c(Cl)c2)n(Cc2ccc(Cl)cc2)c1=O [I-426],211
8,CC(C)Oc1ccc(Nc2nc(=O)n(CC(C)(C)CO)c(=O)n2Cc2ccc(Cl)cc2)cc1F [I-332],8
9,COC(=O)C(C)(C)Cn1c(=O)[nH]/c(=N\c2ccc(C(=O)C(C)(C)C)cc2)n(Cc2ccc(Cl)cc2)c1=O [I-402],443
10,CC(C)Oc1ccc(/N=c2\[nH]c(=O)n(CC(=O)NCC(N)=O)c(=O)n2Cc2ccc(Cl)cc2)cc1Cl [I-438],5
11,O=c1nc(Nc2ccc(-c3ccon3)cc2)n(Cc2ccc(Cl)cc2)c(=O)n1CCO [I-278],931
12,Cc1ccc(Cn2c(=O)n(CC(C)(C)C(=O)O)c(=O)[nH]/c2=N\c2ccc(OC(C)C)c(Cl)c2)cc1 [I-408],10
13,Cc1cc2cc(/N=c3\[nH]c(=O)n(C[C@H](C)C(=O)O)c(=O)n3Cc3ccc(Cl)cc3)ccc2o1 [I-540],27
14,CC(Nc1nc(=O)n(C(C)C)c(=O)n1Cc1ccc(F)cc1)c1ccc(Cl)cc1 (centres unmarked) [I-223],909
15,CCOc1ccc(/N=c2\[nH]c(=O)n(C[C@H](C)C(=O)O)c(=O)n2Cc2ccc(Cl)cc2)cc1C [I-536],46
16,COC(=O)C(C)(C)Cn1c(=O)[nH]/c(=N\c2ccc(OC(C)C)nc2)n(Cc2ccc(Cl)cc2)c1=O [I-473],583
17,CC(C)Oc1ccc(Nc2nc(=O)n(CCC(=O)NCCO)c(=O)n2Cc2ccc(Cl)cc2)cc1F [I-352],36
18,CC(C)Oc1ccc(Nc2nc(=O)n(CCN)c(=O)n2Cc2ccc(Cl)cc2)cc1F [I-290],266
19,CC(C)Oc1ccc(/N=c2\[nH]c(=O)n([C@H](C)CC(=O)O)c(=O)n2Cc2ccc(Cl)cc2)cc1F [I-562],27
20,COC(=O)c1ccc(Cn2c(=O)[nH]/c(=N\c3ccc(OC(C)C)c(F)c3)n(Cc3ccc(Cl)cc3)c2=O)cc1 [I-444],17
21,CCOc1ccc(/N=c2\[nH]c(=O)n(C[C@@H](C)C(=O)O)c(=O)n2Cc2ccc(Cl)cc2)cc1C [I-485],198
22,O=c1nc(Nc2cccc(C(F)(F)F)c2)n(Cc2ccc(Cl)cc2)c(=O)n1CC(CO)CO [I-367],40
23,COC(=O)Cn1c(=O)nc(Nc2ccc(OC(C)C)c(F)c2)n(Cc2ccc(Cl)cc2)c1=O [I-338],53
24,CC(C)Oc1ccc(Nc2nc(=O)n(C(C)C)c(=O)n2Cc2ccc(Cl)nc2)cc1Cl [I-235],985
25,COC(=O)c1cccc(Cn2c(=O)[nH]/c(=N\c3ccc(OC(C)C)c(F)c3)n(Cc3ccc(Cl)cc3)c2=O)c1 [I-450],36
